Measurements from ChEMBL document CHEMBL4699583 (J Med Chem, 2020).

Experiments:
[1] = in vitro; conditions: mouse, liver microsomes
[2] = Kinetic solubility of compound in PBS at pH 7.4 incubated for 24 hrs under shaking condition by UPLC-MS analysis; assay type: physicochemical; conditions: for Kinetic_solubility: buffer, pH 7.4, 24 h
[3] = target: DNA topoisomerase 2-alpha (Homo sapiens, UniProt P11388); test: Inhibition of recombinant human topoisomerase 2alpha using supercoiled pBR322 DNA as substrate incubated for 60 mins by ethidium bromide dye based agarose gel electrophoresis method
Chain of DNA topoisomerase 2-alpha (P11388 whole entry): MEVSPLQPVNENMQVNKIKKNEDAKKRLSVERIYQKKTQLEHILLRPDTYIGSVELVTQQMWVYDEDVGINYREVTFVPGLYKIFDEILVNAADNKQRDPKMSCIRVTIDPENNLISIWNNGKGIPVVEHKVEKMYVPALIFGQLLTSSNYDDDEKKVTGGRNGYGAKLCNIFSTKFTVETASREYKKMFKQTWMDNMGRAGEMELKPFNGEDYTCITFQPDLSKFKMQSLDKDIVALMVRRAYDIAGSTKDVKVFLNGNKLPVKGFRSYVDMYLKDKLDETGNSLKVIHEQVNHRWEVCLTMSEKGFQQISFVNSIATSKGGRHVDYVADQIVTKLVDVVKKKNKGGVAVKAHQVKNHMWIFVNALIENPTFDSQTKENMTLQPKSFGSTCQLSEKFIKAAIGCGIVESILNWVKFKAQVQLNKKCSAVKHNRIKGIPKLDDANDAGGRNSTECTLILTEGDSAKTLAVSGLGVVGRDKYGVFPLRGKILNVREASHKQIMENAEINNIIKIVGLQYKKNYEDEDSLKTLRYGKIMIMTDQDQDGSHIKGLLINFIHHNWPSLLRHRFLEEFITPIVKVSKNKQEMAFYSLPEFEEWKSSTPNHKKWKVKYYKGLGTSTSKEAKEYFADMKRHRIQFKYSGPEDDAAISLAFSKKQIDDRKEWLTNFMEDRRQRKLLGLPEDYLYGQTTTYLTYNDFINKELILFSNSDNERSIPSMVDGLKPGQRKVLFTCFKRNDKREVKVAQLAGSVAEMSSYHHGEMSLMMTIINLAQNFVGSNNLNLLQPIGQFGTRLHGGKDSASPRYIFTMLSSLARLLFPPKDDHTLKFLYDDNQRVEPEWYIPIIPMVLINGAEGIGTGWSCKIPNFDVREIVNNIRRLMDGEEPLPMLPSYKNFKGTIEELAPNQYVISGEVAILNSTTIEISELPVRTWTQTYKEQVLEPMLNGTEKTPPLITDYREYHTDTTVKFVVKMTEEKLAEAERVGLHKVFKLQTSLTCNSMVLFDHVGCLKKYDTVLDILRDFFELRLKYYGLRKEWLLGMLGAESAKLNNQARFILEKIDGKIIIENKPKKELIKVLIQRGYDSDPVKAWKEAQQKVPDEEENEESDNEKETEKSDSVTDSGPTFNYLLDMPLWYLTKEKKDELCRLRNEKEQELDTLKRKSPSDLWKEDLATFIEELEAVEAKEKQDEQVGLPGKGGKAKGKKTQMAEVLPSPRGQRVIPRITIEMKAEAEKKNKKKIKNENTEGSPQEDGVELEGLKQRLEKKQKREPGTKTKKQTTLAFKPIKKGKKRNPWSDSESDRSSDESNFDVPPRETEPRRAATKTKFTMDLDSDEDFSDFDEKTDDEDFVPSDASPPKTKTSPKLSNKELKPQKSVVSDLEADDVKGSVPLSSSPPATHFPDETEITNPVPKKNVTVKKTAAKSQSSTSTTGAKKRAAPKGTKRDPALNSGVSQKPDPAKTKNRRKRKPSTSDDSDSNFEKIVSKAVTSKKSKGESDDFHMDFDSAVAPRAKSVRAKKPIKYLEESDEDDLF

Compound: NC1CCc2nc(-c3ccncc3)nc(Nc3ccc(F)cc3)c2C1 (centres undefined)
- half-life at 1 h, 4.6 µM [1]: > 1 h
- Kinetic_solubility [2]: > 250 µM

Compound: COc1ccc(Nc2nc(-c3ccncc3)nc3c2CC(N)CC3)cc1 (centres undefined)
- IC50 [3]: Not Active

Compound: NC1CCc2nc(-c3cccnc3)nc(Nc3cccc(F)c3)c2C1 (centres undefined)
- half-life at 1 h, 4.6 µM [1]: > 1 h
- solubility kinetic at 24 h ([2]; PBS, pH 7.4, read-out: Kinetic_solubility): > 250 µM

Compound: NC1CCc2nc(-c3ccncc3)nc(Nc3ccccc3)c2C1 (centres undefined)
- IC50 [3]: Not Active

Compound: CN(c1cccc(F)c1)c1nc(-c2ccncc2)nc2c1CC(N)CC2 (centres undefined)
- IC50 [3]: Not Active

Compound: CN(C)c1cccc(Nc2nc(-c3ccncc3)nc3c2CC(N)CC3)c1 (centres undefined)
- IC50 [3]: Not Active

Compound: COc1cccc(Nc2nc(-c3ccncc3)nc3c2CC(N)CC3)c1 (centres undefined)
- half-life at 1 h, 4.6 µM [1]: > 1 h
- Kinetic_solubility [2]: > 250 µM

Compound: NC1CCc2nc(-c3ccncc3)nc(Nc3cccc(F)c3)c2C1 (racemic)
- Kinetic_solubility [2]: 126 µM

Compound: NC1CCc2nc(-c3ccccn3)nc(Nc3cccc(F)c3)c2C1 (centres undefined)
- IC50 [3]: Not Active

Compound: NC1CCc2nc(-c3ccncc3)nc(Nc3ccccc3F)c2C1 (centres undefined)
- IC50 [3]: Not Active

Compound: Fc1cccc(Nc2nc(-c3ccncc3)nc3c2CCCC3)c1
- IC50 [3]: Not Active
